Data as given in the supplement of paper PMC10307832.

What was measured:
Experiment in all cases: relative viability (nuclei count vs DMSO), 5 days (fraction); higher = more cells survive
Afatinib + OSI-027 = compound: CN(C)C/C=C/C(=O)Nc1cc2c(Nc3ccc(F)c(Cl)c3)ncnc2cc1O[C@H]1CCOC1 [Afatinib] + COc1cccc2cc(-c3nc([C@H]4CC[C@H](C(=O)O)CC4)n4ncnc(N)c34)[nH]c12 [OSI-027] (partner 0.5 µM)
How it was run: (§1)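 One day after seeding in 1536-well plates, lung cancer cell lines were dosed by pin tool. Dosing was either single-drug or a fixed anchor-drug dose plus five library-drug doses (not always all listed) in √10 steps. After 5 days, nuclei were stained in one fix-and-stain step and counted on 4× images, and relative viability is the nuclei count of treated wells over that of vehicle wells, given as the median of duplicate plates.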

Afatinib + Lapatinib = compound: CN(C)C/C=C/C(=O)Nc1cc2c(Nc3ccc(F)c(Cl)c3)ncnc2cc1O[C@H]1CCOC1 [Afatinib] + CS(=O)(=O)CCNCc1ccc(-c2ccc3ncnc(Nc4ccc(OCc5cccc(F)c5)c(Cl)c4)c3c2)o1 [Lapatinib] (partner 2 µM)
How it was run: as §1

Afatinib + Linsitinib = compound: CN(C)C/C=C/C(=O)Nc1cc2c(Nc3ccc(F)c(Cl)c3)ncnc2cc1O[C@H]1CCOC1 [Afatinib] + C[C@]1(O)C[C@@H](c2nc(-c3ccc4ccc(-c5ccccc5)nc4c3)c3c(N)nccn32)C1 [Linsitinib] (partner 1 µM)
How it was run: as §1

Afatinib + Alpelisib = compound: CN(C)C/C=C/C(=O)Nc1cc2c(Nc3ccc(F)c(Cl)c3)ncnc2cc1O[C@H]1CCOC1 [Afatinib] + Cc1nc(NC(=O)N2CCC[C@H]2C(N)=O)sc1-c1ccnc(C(C)(C)C(F)(F)F)c1 [Alpelisib] (partner 2 µM)
How it was run: as §1

Cell Line | relative viability (Afatinib + OSI-027; first compound 0.005 µM) | relative viability (Afatinib + OSI-027; first compound 0.01581 µM) | relative viability (Afatinib + OSI-027; first compound 0.05 µM) | relative viability (Afatinib + OSI-027; first compound 0.1581 µM) | relative viability (Afatinib + OSI-027; first compound 0.5 µM) | relative viability (Afatinib + Lapatinib; first compound 0.005 µM) | relative viability (Afatinib + Lapatinib; first compound 0.01581 µM) | relative viability (Afatinib + Lapatinib; first compound 0.05 µM) | relative viability (Afatinib + Lapatinib; first compound 0.1581 µM) | relative viability (Afatinib + Lapatinib; first compound 0.5 µM) | relative viability (Afatinib + Linsitinib; first compound 0.005 µM) | relative viability (Afatinib + Linsitinib; first compound 0.01581 µM) | relative viability (Afatinib + Linsitinib; first compound 0.05 µM) | relative viability (Afatinib + Linsitinib; first compound 0.1581 µM) | relative viability (Afatinib + Linsitinib; first compound 0.5 µM) | relative viability (Afatinib + Alpelisib; first compound 0.005 µM) | relative viability (Afatinib + Alpelisib; first compound 0.01581 µM) | relative viability (Afatinib + Alpelisib; first compound 0.05 µM) | relative viability (Afatinib + Alpelisib; first compound 0.1581 µM) | relative viability (Afatinib + Alpelisib; first compound 0.5 µM)
NCI-H1651 | 0.688 | 0.618 | 0.61 | 0.67 | 0.627 | 0.925 | 0.841 | 0.763 | 0.834 | 0.803 | 1.12 | 0.983 | 0.847 | 0.906 | 0.815 | 1.02 | 0.881 | 0.906 | 0.953 | 0.849
NCI-H1666 | 0.88 | 0.759 | 0.657 | 0.581 | 0.612 | 0.592 | 0.621 | 0.618 |  | 0.834 | 0.724 | 0.743 | 0.56 |  | 0.561 | 0.968 | 0.605 | 0.505 |  | 0.497
NCI-H1734 | 0.671 | 0.624 | 0.587 | 0.57 | 0.511 | 1.06 | 1.01 | 1.06 | 1.01 | 1.09 | 0.9 | 0.75 | 0.931 | 0.865 | 0.771 | 0.675 | 0.747 | 0.735 | 0.697 | 0.671
NCI-H1755 | 0.736 | 0.754 | 0.845 | 0.627 | 0.668 | 1.11 | 1.03 | 1.09 | 1.04 | 1.07 | 0.979 | 0.992 | 0.997 | 0.938 | 0.995 | 0.492 | 0.89 | 0.882 | 0.888 | 0.929
NCI-H1792 | 0.662 | 0.762 | 0.707 | 0.672 | 0.735 | 0.999 | 0.783 | 0.825 | 0.972 | 0.971 | 0.533 | 0.616 | 0.497 | 0.533 | 0.484 | 0.64 | 0.732 | 0.722 | 0.674 | 0.668
NCI-H1793 | 0.237 | 0.211 | 0.168 | 0.233 | 0.146 | 0.679 | 0.733 | 0.962 | 0.995 | 0.467 | 0.566 | 0.431 | 0.61 | 0.461 | 0.514 | 0.57 | 0.658 | 0.555 | 0.544 | 0.527
NCI-H1915 | 0.742 | 0.613 | 0.602 | 0.611 | 0.469 | 1.02 | 0.944 | 0.994 | 0.959 | 0.876 | 1.13 | 1.08 | 1.11 | 1.07 | 1.07 | 1.09 | 1.09 | 1.06 | 1.02 | 0.972
NCI-H1944 | 0.429 | 0.329 | 0.328 | 0.311 | 0.327 | 0.884 | 0.795 | 0.691 | 0.799 | 0.858 | 1.04 | 0.904 | 0.776 | 0.566 | 0.571 | 0.677 | 0.763 | 0.693 | 0.465 | 0.518
